These results are taken from patent US11986450B2, “Methods and compositions for treating infection and inflammation with selenocyanate” (National Jewish Health, priority 2017, dated 2024).

The experiment has as its target recombinant E. coli Cys-TrxR (Escherichia coli, UniProt P0A9P4). Nature of the experiment: Kinetic analysis of HOSCN metabolism and inhibition. The format is biochemical. From the text: FIGS. 3A-3B. Kinetic analysis of HOSCN metabolism by recombinant mouse Sec-TrxR and recombinant E. coli Cys-TrxR. […] Sec-TrxR forms that lack a selenocysteine (Sec489Cys) or truncated by the last 8 amino acids (D8) had diminished activity.

Sequence of recombinant E. coli Cys-TrxR (P0A9P4 whole entry, the tested form may be a part): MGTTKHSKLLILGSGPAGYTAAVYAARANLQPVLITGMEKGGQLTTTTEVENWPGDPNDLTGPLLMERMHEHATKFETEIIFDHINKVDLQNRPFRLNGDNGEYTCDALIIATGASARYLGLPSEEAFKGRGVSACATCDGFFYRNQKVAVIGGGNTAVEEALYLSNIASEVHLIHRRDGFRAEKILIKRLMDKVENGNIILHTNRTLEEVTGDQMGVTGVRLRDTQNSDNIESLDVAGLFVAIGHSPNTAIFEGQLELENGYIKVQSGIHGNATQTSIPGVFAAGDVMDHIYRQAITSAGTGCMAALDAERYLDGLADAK

On to `N#CSO` [HOSCN, hypothiocyanite], for which the 50% inhibitory concentration (IC50) is 2750 nM. Moreover, the HOSCN metabolism activity entry (similar conditions) is “no measurable activity”.

By IC50 is commonly meant the concentration at which inhibition is half-maximal.
